From patent US5648378A, “2-iminochromene derivatives as inhibitors of protein tyrosine kinase” (Research Corporation Technologies, Inc., priority 1995, dated 1997)
In brackets after ≈: the same amount, converted by molar mass. Entries after “also recorded” stand apart in the source; their conditions may differ.

Columns and labels:
[1] = target: T1, p60^c-src (Homo sapiens, UniProt P12931); assay: kinase assay, purified p60c-src, poly [Glu,Tyr](4:1) substrate; format: biochemical; conditions: for IC50, p60^c-src: purified kinase, poly [Glu,Tyr](4:1) substrate; for potency relative to the hydroxylated parent compound (in words): hydroxymethyl versus hydroxy N-phenyl analogue
T1 construct: purchased Upstate Biotechnology Inc
T1 sequence (P12931 whole entry): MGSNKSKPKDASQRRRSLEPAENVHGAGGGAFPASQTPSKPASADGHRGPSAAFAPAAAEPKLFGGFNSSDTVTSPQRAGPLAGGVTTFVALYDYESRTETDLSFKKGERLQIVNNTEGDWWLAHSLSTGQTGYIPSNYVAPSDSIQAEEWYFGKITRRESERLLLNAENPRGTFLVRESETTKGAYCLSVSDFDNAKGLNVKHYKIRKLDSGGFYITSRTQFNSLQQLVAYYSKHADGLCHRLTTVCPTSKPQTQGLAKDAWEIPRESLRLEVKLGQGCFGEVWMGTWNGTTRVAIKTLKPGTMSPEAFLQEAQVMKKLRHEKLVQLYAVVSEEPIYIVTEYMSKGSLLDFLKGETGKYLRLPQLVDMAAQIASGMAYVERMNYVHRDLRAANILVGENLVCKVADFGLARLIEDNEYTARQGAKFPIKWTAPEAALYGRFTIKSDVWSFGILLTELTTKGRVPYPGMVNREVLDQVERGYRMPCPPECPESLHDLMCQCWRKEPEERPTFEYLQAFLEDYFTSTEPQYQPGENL
Protocol: (§1) Purified p60^c-scr and Src-family kinases p56^lck, p56^lyn, and p55^fyn were obtained from Upstate Biotechnology Inc. Kinase assays were performed as described by A. Gezit, J. Med.

[2] = target: T2, p56^lyn (Homo sapiens, UniProt P07948); assay: kinase assay, p56lyn; format: biochemical; conditions: poly [Glu,Tyr](4:1) substrate
T2 construct: purchased Upstate Biotechnology Inc
T2 sequence (P07948 whole entry, species assumed): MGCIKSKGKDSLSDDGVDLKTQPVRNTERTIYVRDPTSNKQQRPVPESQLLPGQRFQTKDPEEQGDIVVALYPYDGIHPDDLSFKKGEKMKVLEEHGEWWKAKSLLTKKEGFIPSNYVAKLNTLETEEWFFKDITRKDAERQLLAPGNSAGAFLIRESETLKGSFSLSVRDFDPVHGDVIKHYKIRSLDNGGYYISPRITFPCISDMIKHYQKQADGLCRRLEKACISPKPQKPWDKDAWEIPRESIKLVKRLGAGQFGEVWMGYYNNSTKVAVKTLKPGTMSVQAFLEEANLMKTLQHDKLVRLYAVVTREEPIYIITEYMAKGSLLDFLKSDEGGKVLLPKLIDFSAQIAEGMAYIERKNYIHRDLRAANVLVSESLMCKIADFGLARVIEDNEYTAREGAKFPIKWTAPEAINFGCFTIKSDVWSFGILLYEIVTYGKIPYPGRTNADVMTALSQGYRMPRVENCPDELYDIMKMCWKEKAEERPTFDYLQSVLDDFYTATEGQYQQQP
Protocol: as §1

[3] = system: HL-60 cells; assay: cell growth inhibition, HL-60 promyelocytic leukemia; format: cell-based; conditions: Homo sapiens, HL-60, 72 h; 3 days, Trypan Blue viable cell count
Protocol: (§2) The source of the cancer cell lines were: HL-60, HT-29, and BT-20, from American Type Culture Collection, Rockville, Maryland; A-1 from Dr. M. H. Freedman, MG-63, from Dr. M. Hurley, and human fibroblast from Dr. R. Zeff. Cells were grown in the culture treated with or without various compounds for 3 days. Cells (except BT-20) were then recovered and treated with Trypan Blue and the number of viable cells counted. For BT-20 cells, a new rapid and simple method using Alamar Blue Assay was used, as described by S. A. Ahmed et al., J. Immunol. Meth., 170, 211 (1994). The symbol i on the Table indicates "not
(§3) As shown on Table 3, several compounds of formula (I) were tested for their ability to inhibit the growth of human cancer cells including promyelocytic leukemia HL-60 cells (S. J. Collins et al., Blood, 70, 1233 (1987)); acute lymphocytic leukemia A-1 cells, (S. Kamel-Reid et al., Leukemia, 6, 8 (1992)); human osteosarcoma MG-63, (A. Pirskanen et al., J. Bone and Mineral Res., 1635 (1994)); human breast carcinoma BT-20 (G. G. Castles et al., Cancer Res., 58, 5934 (1992)); and human colon adenocarcinoma HT-29 cells (R. Garcia et al., Oncogene, 6, 1983 (1991)).

[4] = system: A-1 cells; assay: cell growth inhibition, A-1 acute lymphocytic leukemia; format: cell-based; conditions: Homo sapiens, 72 h; 3 days, Trypan Blue viable cell count
Protocol: as §2

[5] = system: BT-20; assay: cell growth inhibition, BT-20 breast carcinoma (Alamar Blue); format: cell-based; conditions: Homo sapiens, BT-20, 72 h, 3 days, Alamar Blue Assay
Protocol: as §2, §3

[6] = target: T3, p56^lck (Homo sapiens, UniProt P06239); assay: kinase assay, p56lck; format: biochemical; conditions: poly [Glu,Tyr](4:1) substrate
T3 construct: purchased Upstate Biotechnology Inc
T3 sequence (P06239 whole entry, species assumed): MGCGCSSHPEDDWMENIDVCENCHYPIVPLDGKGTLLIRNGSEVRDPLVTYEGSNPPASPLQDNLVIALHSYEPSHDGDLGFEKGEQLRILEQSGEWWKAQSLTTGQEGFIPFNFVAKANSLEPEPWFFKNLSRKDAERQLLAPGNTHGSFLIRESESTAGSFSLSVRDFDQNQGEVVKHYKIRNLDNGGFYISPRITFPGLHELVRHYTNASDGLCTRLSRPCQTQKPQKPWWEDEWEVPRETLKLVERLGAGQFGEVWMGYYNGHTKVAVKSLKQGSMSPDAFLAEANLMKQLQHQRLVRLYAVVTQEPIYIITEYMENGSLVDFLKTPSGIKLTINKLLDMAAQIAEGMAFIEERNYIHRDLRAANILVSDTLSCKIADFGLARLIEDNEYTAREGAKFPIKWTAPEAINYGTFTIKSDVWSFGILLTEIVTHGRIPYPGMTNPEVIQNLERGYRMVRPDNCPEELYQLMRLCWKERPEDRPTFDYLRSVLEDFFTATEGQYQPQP
Protocol: as §1

[7] = target: p55^fyn; assay: kinase assay, p55fyn; format: biochemical; conditions: poly [Glu,Tyr](4:1) substrate
Protocol: as §1

[8] = system: MG-63; assay: cell growth inhibition, MG-63 osteosarcoma; format: cell-based; conditions: Homo sapiens, MG-63, 72 h; 3 days, Trypan Blue viable cell count
Protocol: as §2, §3

[9] = system: HT-29 cells; assay: cell growth inhibition, HT-29 colon adenocarcinoma; format: cell-based; conditions: Homo sapiens, HT-29, 72 h; 3 days, Trypan Blue viable cell count
Protocol: as §2, §3

[10] = system: human cancer cells (HL-60, A-1, MG-63, BT-20, HT-29); assay: inhibition of growth of human cancer cell lines, overall comparison; format: cell-based; conditions: 9TA, 18TA compared with e.g. 9TO, 18TO
Protocol: as §2, §3

[11] = system: Human fibroblasts cells; assay: cell growth inhibition, human fibroblasts; format: cell-based; conditions: for IC50: Homo sapiens, Fibroblast, 72 h, 3 days, Trypan Blue viable cell count
Protocol: as §2

[12] = system: melanoma; conditions: 50 mg/day; Thornes et al. (1994); cited from earlier work

| IC50, p60^c-src [1] [µg/mL] | IC50 [3] [µg/mL] | IC50 [4] [µg/mL] | IC50 [5] [µg/mL] | IC50, p55^fyn [7] [µg/mL] | IC50, p56^lck [6] [µg/mL] | IC50 [9] [µg/mL] | Compound | also measured |
| --- | --- | --- | --- | --- | --- | --- | --- | --- |
| 0.035 (≈ 0.118 µM) | 10 (≈ 33.8 µM) | 6 (≈ 20.3 µM) | – | – | 0.62 (≈ 2.09 µM) | 20 (≈ 67.5 µM) | N=c1oc2c(O)cccc2cc1C(=O)Nc1cccc(O)c1 [Compound 9TA] | inhibition of p60^c-src kinase (in words) [1]: strong inhibitory effect; inhibition of cancer cell growth (in words) [10]: not as potent |
| – | 1.5 (≈ 5.06 µM) | 1.9 (≈ 6.41 µM) | – | > 20 | 1.2 (≈ 4.05 µM) | 4 (≈ 13.5 µM) | N=c1oc2c(O)cccc2cc1C(=O)Nc1ccccc1O [Compound 9TO] | inhibition of p60^c-src kinase (in words) [1]: relatively weak activity |
| – | 2.5 (≈ 8.44 µM) | – | 7 (≈ 23.6 µM) | > 20 | 0.62 (≈ 2.09 µM) | 4 (≈ 13.5 µM) | N=c1oc2c(O)cccc2cc1C(=O)Nc1ccc(O)cc1 [Compound 9T] | IC50, p56^lyn [2]: 20 µg/mL (≈ 67.5 µM); IC50 [8]: 1.25 µg/mL (≈ 4.22 µM) |
| – | 7.5 (≈ 24.2 µM) | – | > 20 | – | – | – | COc1ccc2cc(C(=O)Nc3ccc(O)cc3)c(=N)oc2c1 [Compound 15T] | fold less active than 8T ([1]; p60^c-src, versus 8T): 8 fold |
| 12.5 (≈ 40.3 µM) | 5 (≈ 16.1 µM) | – | > 20 | – | 7.5 (≈ 24.2 µM) | – | COc1ccc2oc(=N)c(C(=O)Nc3ccc(O)cc3)cc2c1 [Compound 16T] | fold less active than 7T ([1]; p60^c-src, versus 7T): 4 fold |
| – | > 20 | 17 (≈ 57.4 µM) | – | > 20 | – | – | N=c1oc2c(O)c(O)ccc2cc1C(=O)Nc1ccccc1 [Compound 18AN] | inhibition of p60^c-src kinase (in words) [1]: inactive; inhibition of cancer cell growth (in words) [10]: less active |
| 0.225 (≈ 0.721 µM) | 9 (≈ 28.8 µM) | 20 (≈ 64 µM) | – | > 20 | 20 (≈ 64 µM) | > 20 | N=c1oc2c(O)c(O)ccc2cc1C(=O)Nc1cccc(O)c1 [Compound 18TA] | inhibition of p60^c-src kinase (in words) [1]: strong inhibitory effect; fold more potent than 18AN ([1]; p60^c-src, versus 18AN): 88 fold; IC50, p56^lyn [2]: 18 µg/mL (≈ 57.6 µM); inhibition of cancer cell growth (in words) [10]: not as potent |
| 12 (≈ 38.4 µM) | 2 (≈ 6.4 µM) | 2 (≈ 6.4 µM) | – | > 20 | 20 (≈ 64 µM) | 15 (≈ 48 µM) | N=c1oc2c(O)c(O)ccc2cc1C(=O)Nc1ccccc1O [Compound 18TO] | inhibition of p60^c-src kinase (in words) [1]: relatively weak activity |
| 3.6 (≈ 11.5 µM) | 3.5 (≈ 11.2 µM) | 8 (≈ 25.6 µM) | 7.2 (≈ 23.1 µM) | > 20 | 5 (≈ 16 µM) | 20 (≈ 64 µM) | N=c1oc2c(O)c(O)ccc2cc1C(=O)Nc1ccc(O)cc1 [Compound 18T] | – |
| 1.25 (≈ 4 µM) | 2.5 (≈ 8.01 µM) | 15 (≈ 48 µM) | > 20 | – | 3.75 (≈ 12 µM) | 10 (≈ 32 µM) | N=c1oc2cc(O)cc(O)c2cc1C(=O)Nc1cccc(O)c1 [Compound 19TA] | IC50, p56^lyn [2]: 5 µg/mL (≈ 16 µM); inhibition of growth of human fibroblast cells (in words) [11]: not effective; IC50 [11]: > 20 µg/mL; IC50 [8]: 5 µg/mL (≈ 16 µM) |
| 2.1 (≈ 6.72 µM) | 5 (≈ 16 µM) | 2.5 (≈ 8.01 µM) | > 20 | – | – | 0.625 (≈ 2 µM) | N=c1oc2cc(O)cc(O)c2cc1C(=O)Nc1ccccc1O [Compound 19TO] | inhibition of growth of human fibroblast cells (in words) [11]: not effective; IC50 [11]: > 20 µg/mL; IC50 [8]: 2.5 µg/mL (≈ 8.01 µM) |
| 0.2 (≈ 0.64 µM) | 1 (≈ 3.2 µM) | 1 (≈ 3.2 µM) | – | – | 2 (≈ 6.4 µM) | 2.5 (≈ 8.01 µM) | N=c1oc2cc(O)cc(O)c2cc1C(=O)Nc1ccc(O)cc1 [Compound 19T] | fold more potent than the parent compound 25T ([1]; p60^c-src, versus 25T): 200 fold; IC50, p56^lyn [2]: 5 µg/mL (≈ 16 µM); inhibition of growth of human fibroblast cells (in words) [11]: not effective; IC50 [11]: > 20 µg/mL |
| – | > 10 | – | 10 (≈ 35.7 µM) | – | – | – | N=c1oc2ccccc2cc1C(=O)Nc1ccc(O)cc1 [Compound 25T, 3-(N-4-hydroxyphenyl)carbamoyl-2-iminochromene] | inhibition of p60^c-src kinase (in words) [1]: poorly inhibits; also recorded: inactive; inhibition of cancer cell growth (in words) [10]: less active |
| 10 (≈ 35.7 µM) | – | – | – | – | – | – | N=c1oc2ccccc2cc1C(=O)Nc1cccc(O)c1 [Compound 25TA] | – |
| 1.3 (≈ 4.19 µM) | – | 12 (≈ 38.7 µM) | – | – | – | – | COc1cccc2cc(C(=O)Nc3cccc(O)c3)c(=N)oc12 [Compound 32TA] | – |

Second part, the compound before the results:

| Compound | IC50, p60^c-src [1] [µg/mL] | IC50 [3] [µg/mL] | IC50 [4] [µg/mL] | IC50 [5] [µg/mL] | IC50, p55^fyn [7] [µg/mL] | IC50, p56^lck [6] [µg/mL] | IC50 [9] [µg/mL] | also measured |
| --- | --- | --- | --- | --- | --- | --- | --- | --- |
| N=c1oc2ccc(O)cc2cc1C(=O)Nc1cccc(O)c1 [Compound 7TA] | 1.3 (≈ 4.39 µM) | 6.5 (≈ 21.9 µM) | 4.5 (≈ 15.2 µM) | – | – | – | – | IC50 [2]: > 33.8 µM |
| N=c1oc2ccc(O)cc2cc1C(=O)Nc1ccc(O)cc1 [Compound 7T] | 3.2 (≈ 10.8 µM) | 4.2 (≈ 14.2 µM) | 3 (≈ 10.1 µM) | 4.5 (≈ 15.2 µM) | – | – | – | – |
| N=c1oc2cc(O)ccc2cc1C(=O)Nc1cccc(O)c1 [Compound 8TA] | 9 (≈ 30.4 µM) | 3.3 (≈ 11.1 µM) | – | – | – | – | – | IC50 [2]: > 33.8 µM |
| N=c1oc2cc(O)ccc2cc1C(=O)Nc1ccccc1O [Compound 8TO] | 0.6 (≈ 2.03 µM) | 8 (≈ 27 µM) | – | – | – | – | – | – |
| N=c1oc2cc(O)ccc2cc1C(=O)Nc1ccc(O)cc1 [Compound 8T] | 1.2 (≈ 4.05 µM) | 5 (≈ 16.9 µM) | 5 (≈ 16.9 µM) | 14 (≈ 47.3 µM) | – | – | – | – |
| N=c1oc2c(O)cccc2cc1C(=O)Nc1cccc(CO)c1 [Compound 9TABA] | 2.5 (≈ 8.06 µM) | – | 11 (≈ 35.4 µM) | – | 3 (≈ 9.67 µM) | – | – | potency relative to the hydroxylated parent compound (in words) ([1]; p60^c-src): not more potent; IC50 [6]: 64.5 µM; IC50 [8]: > 20 µg/mL |
| N=c1oc2c(O)cccc2cc1C(=O)Nc1ccccc1CO [Compound 9TOBA] | 1.8 (≈ 5.8 µM) | 6 (≈ 19.3 µM) | – | – | – | – | – | potency relative to the hydroxylated parent compound (in words) ([1]; p60^c-src): much more potent; IC50 [8]: 5 µg/mL (≈ 16.1 µM) |
| CC(=O)c1cccc(NC(=O)c2cc3ccc(O)c(O)c3oc2=N)c1 [Compound 18ACTA] | 3 (≈ 8.87 µM) | – | 15 (≈ 44.3 µM) | – | – | – | – | IC50, p56^lyn [2]: 10 µg/mL (≈ 29.6 µM) |
| N=c1oc2c(O)c(O)ccc2cc1C(=O)Nc1cccc(CO)c1 [Compound 18TABA] | 5 (≈ 15.3 µM) | 2.5 (≈ 7.66 µM) | 2.5 (≈ 7.66 µM) | – | > 20 | – | – | potency relative to the hydroxylated parent compound (in words) ([1]; p60^c-src): not more potent; IC50, p56^lyn [2]: 20 µg/mL (≈ 61.3 µM) |
| N=c1oc2c(O)c(O)ccc2cc1C(=O)Nc1ccccc1CO [Compound 18TOBA] | 0.9 (≈ 2.76 µM) | 6 (≈ 18.4 µM) | > 20 | – | > 20 | 5 (≈ 15.3 µM) | – | potency relative to the hydroxylated parent compound (in words) ([1]; p60^c-src): much more potent |
| O=c1ccc2ccccc2o1 [coumarin] | – | – | – | – | – | – | – | effect against melanoma (in words) [12]: effective against melanoma |
